The subject of assay [1] is calf thymus DNA. In words: UV-vis absorption titration with calf thymus DNA. Type of assay: binding. The protocol:
The calf thymus DNA was purchased from Sigma-Aldrich Chemical Co. and was purified by phenol-chloroform extraction. The DNA was dissolved in buffer (5 mM Tris, 5 mM NaCl, pH 7.2). The concentration (per base pair) of calf thymus DNA was determined spectrophotometrically on the basic of ε260, 13,200 M^−1cm^−1bp.
Absorption Titration. The binding interaction of the gold(III) porphyrins to duplex DNA has been studied by UV-vis spectroscopy.
where [ctDNA] is the concentration of DNA, Δεap═|εA−εB| in which εA=Aobs/[complex], and Δε=|εB−εF|. εB and εF correspond to the extinction coefficient of DNA-bound gold(III) porphyrin and the free gold(III) porphyrins, respectively.
The effect of temperature on the intrinsic binding constants was investigated. Using the van't Hoff equation (2): […]

In assay [2] the test system is HeLa cells. In words: Confocal microscopic experiment (cell morphology, AO/EB staining). The settings on record: 0.5 μM, 15 h incubation. In kind it is cell-based, human. The source says:
Confocal Microscopic Experiment. By examining cell morphology using scanning confocal microscopy, the type of cell death can be recognized. The early phase of apoptosis is characterized by the formation of apoptotic bodies while the integrity of the cell membrane is maintained without cell lysis. On the contrary, necrosis is characterized by cell lysis with the internal cellular components such as DNA being exposed. Using suitable staining agents (ethidium bromide (EB) for DNA and acridine orange (AO) for cell membrane) normal, necrotic and apoptotic cells can be distinguished by laser confocal microscopy. See Chan et al., Inorg. Chem. 41:3161-3171 (2002).
The picture of the cells is depicted in FIG. 12. […] Importantly, no cellular DNA was exposed due to necrosis.

With `C1=Cc2nc1c(-c1ccccc1)c1ccc([n-]1)c(-c1ccccc1)c1nc(c(-c3ccccc3)c3ccc([n-]3)c2-c2ccccc2)C=C1.[Au+3].[Cl-]` [Complex 1a], the hypochromicity in assay [1] (Tris buffer, 292.8 K) was 53.4%; in assay [1] (Tris buffer, 298.0 K), 50.3%; in assay [1] (Tris buffer, 302.3 K) it was 49.5%; in assay [1] (Tris buffer, 307.2 K) it was 47.1%; in assay [1] (Tris buffer, 311.6 K) it was 46.3%; in assay [1] (Tris buffer, 316.5 K), 43.4%. Moreover, in assay [1] (Tris buffer, 321.9 K), the hypochromicity stood at 42.5%. Besides, the “intrinsic binding constant (Kb)” value is 2.14 × 10^6 dm^3mol^−1 in assay [1] (Tris buffer, 298.0 K); 1.98 × 10^6 dm^3mol^−1 in assay [1] (Tris buffer, 302.3 K); 1.55 × 10^6 dm^3mol^−1 in assay [1] (Tris buffer, 307.2 K); 1.35 × 10^6 dm^3mol^−1 in assay [1] (Tris buffer, 311.6 K); 0.94 × 10^6 dm^3mol^−1 in assay [1] (Tris buffer, 316.5 K); 0.82 × 10^6 dm^3mol^−1 in assay [1] (Tris buffer, 321.9 K). For the same compound, in assay [1] (binding to calf thymus DNA, van't Hoff analysis, 298 K), the “ΔG° (298 K)” value was −8.7 ± 0.4. The “hypochromicity of the Soret band” value in assay [1] (calf thymus DNA (0-5 μM), Tris buffer) came out at 44%. For the same compound, in assay [1] (calf thymus DNA (0-5 μM), Tris buffer, 2% DMSO), the “hypochromicity of the Q-band at 520 nm” value amounted to 40%. The “cell morphology (type of cell death)” value in assay [2] was “living cells and apoptotic cells were observed”.

Values taken from patent US20040063681A1, “Methods for using gold (III) complexes as anti-tumor and anti-HIV agents” (priority 2002, published 2004).
